# Key:
# [1] = In vitro stability (D/H exchange, enantiomerization, degradation) in human plasma; format: in vitro ADME; conditions: 37° C.; for half-life: human, plasma (K3EDTA), calculated half-life
# Protocol: (§1) (+)-5-({p-[2-(5-ethylpyridin-2-yl)-2-oxoethoxy]phenyl}methyl)-1,3-thiazolidine-2,4-dione, (−)-5-({p-[2-(5-ethylpyridin-2-yl)-2-oxoethoxy]phenyl}methyl)-1,3-thiazolidine-2,4-dione, rac-5-({p-[2-(5-ethylpyridin-2-yl)-2-oxoethoxy]phenyl}methyl)-(5-^2H))-1,3-thiazolidine-2,4-dione (>98% deuterium at C-5 of the 1,3-thiazolidine-2,4-dione moiety; 50:50 racemic mixture of (+)- and (−)-deuterated enantiomers) were incubated in CD-1 mouse plasma (K3EDTA as anticoagulant) or human plasma (K3EDTA as anticoagulant) at 37° C. in duplicates. Aliquots (50 μL) were removed at t=0, 0.0833, 0.25, 0.5, 1, 2, 4, 8, and 16 hours and added to micro centrifuge tubes containing 10 μL of 5% w/v zinc sulfate heptahydrate in water. Samples were frozen and stored until the study was complete. After thawing on ice, 10 μL of internal standard (ISTD) spiking solution (d4-pioglitazone in acetonitrile/water 1:1) were added followed by 250 μL of methyl t-butyl ether (MTBE). A 100 μL aliquot of the organic layer was evaporated after homogeneization and reconstituted in 100 μL of 95:5 acetonitrile/0.1% formic acid in water (v/v).
# (§2) The samples were analyzed semi-quantitatively by LC/MS-MS with elution on a chiral column (Daicel ChiralPak ID-3) for the separation of enantiomers (isocratic method of 5:95 v/v 0.1% formic acid in water and acetonitrile). Peak areas for the protonated and deuterated enantiomers were calculated and normalized to the area of the ISTD. Peak areas for the deuterated enantiomers (+)-5-({p-[2-(5-ethylpyridin-2-yl)-2-oxoethoxy]phenyl}methyl)-(5-2H)-1,3-thiazolidine-2,4-dione and (−)-5-({p-[2-(5-ethylpyridin-2-yl)-2-oxoethoxy]phenyl}methyl)-(5-^2H)-1,3-thiazolidine-2,4-dione were further corrected for the isotopic peak of the corresponding protonated enantiomer, (+)- and (−)-5-({p-[2-(5-ethylpyridin-2-yl)-2-oxoethoxy]phenyl}methyl)-1,3-thiazolidine-2,4-dione respectively, if present. Corrected data were analyzed and plotted using Microsoft Excel 2013 (Microsoft Corp, Redmond, Wash.) and the Excel Solver.
# (§3) Scheme 3 illustrates the possible reactions in a solution of a deuterated racemate. The deuterium at the chiral center of both enantiomers, d+ and d−, can be depleted by D/H exchange to give both protonated enantiomers, h+ and h− with rate constants kD++, kD+−, kD−+, kD−. At the same time, the protonated enantiomers h+ and h−, can exchange, with enantiomerization rate constants k+− and k−+. All four compounds can also degrade with potentially different degradation rate constants kh+d, kh−d, kd+d, kd−d for enantiomers h+, h−, d+, and d−, respectively.
# (§4) Human plasma stability data and mouse plasma stability data were analyzed independently. Concurrent analysis of the data for h+, h−, and deuterated racemate was performed. Calculated concentrations were obtained through numerical approximation of differential equations (1) and (2) for the stability studies of h+ and h- and equations (3) to (6) for the stability study of deuterated racemate (50:50 d+:d−) by the Euler method (equation (7)). The step between calculated time points was minimized in order to minimize the local error (proportional to the square of the step size) and the global error (proportional to the step size). […] Data analysis was performed in Microsoft Excel 2013, using the Solver Generalized Reduced Gradient Nonlinear method with central derivatives to minimize the sum of sums of weighted Δ^2, square of difference between ISTD-normalized experimental data and calculated value, divided by the calculated value.
# (§5) [formula] [formula] [formula] [formula] where [h+], [h−], [d+], [d−] are the concentrations on both protonated and deuterated enantiomers, k+− and k−+ are the rate constants for the enantiomerization reactions h+ to h− and h− to h+ respectively, kD++, kD+−, kD−+, and kD− are the rate constants for the D/H exchange reactions d+ or d− to h+ or h−, and kd is the rate constant for the degradation of all four compounds. […]
# [2] = In vitro stability (D/H exchange, enantiomerization, degradation) in CD-1 mouse plasma; format: in vitro ADME; conditions: 37° C.; for half-life: CD-1, mouse, plasma (K3EDTA), calculated half-life
# Protocol: as §1, §2, §3, §4, §5
# [3] = read-out: t1/2 degradation (converted)
# [4] = read-out: t1/2 enantiomerization +− (h+ to h−) (converted)
# [5] = read-out: t1/2 enantiomerization −+ (h− to h+) (converted)
Compound,"k d (rate constant, degradation; assumed equal for all four compounds) ([1]; fitted to Equations 1 to 6)","half-life [1, 3]","k d (rate constant, degradation; assumed equal for all four compounds) ([2]; fitted to Equations 1 to 6)","half-life [2, 3]","k +− (rate constant, enantiomerization h+ to h−) ([1]; fitted to Equations 1 to 6)","half-life [1, 4]","k +− (rate constant, enantiomerization h+ to h−) ([2]; fitted to Equations 1 to 6)","half-life [2, 4]","k −+ (rate constant, enantiomerization h− to h+) ([1]; fitted to Equations 1 to 6)","half-life [1, 5]","k −+ (rate constant, enantiomerization h− to h+) ([2]; fitted to Equations 1 to 6)","half-life [2, 5]"
"[2H]C1(Cc2ccc(OCC(=O)c3ccc(CC)cn3)cc2)SC(=O)NC1=O (racemic) [d-rac, rac-5-({p-[2-(5-ethylpyridin-2-yl)-2-oxoethoxy]phenyl}methyl)-(5-^2H)-1,3-thiazolidine-2,4-dione]",1.05e-06 s⁻¹,184 h,4.25e-06 s⁻¹,45.4 h,,,,,,,,
"CCc1ccc(C(=O)COc2ccc(CC3SC(=O)NC3=O)cc2)nc1 (single isomer, unassigned; (+)) [h+, (+)-5-({p-[2-(5-ethylpyridin-2-yl)-2-oxoethoxy]phenyl}methyl)-1,3-thiazolidine-2,4-dione]",1.05e-06 s⁻¹,184 h,4.25e-06 s⁻¹,45.4 h,0.308 h⁻¹,2.2 h,0.504 h⁻¹,1.4 h,,,,
"CCc1ccc(C(=O)COc2ccc(CC3SC(=O)NC3=O)cc2)nc1 (single isomer, unassigned; (-)) [h−, (−)-5-({p-[2-(5-ethylpyridin-2-yl)-2-oxoethoxy]phenyl}methyl)-1,3-thiazolidine-2,4-dione]",,,,,,,,,0.359 h⁻¹,1.9 h,0.594 h⁻¹,1.2 h

# — patent US9833445B2, “5-deutero-2,4-thiazolidinedione derivatives and compositions comprising and methods of using the same” (DeuteRx, LLC, priority 2013, dated 2017)
